# How the values were obtained:
# [1] = tested on: human lung cancer strain NCI-H441; type: cell-based
# Summary of the method: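 Proliferation was scored by […] measured after the reagent was added to cultures kept at 37°C in 5% carbon dioxide.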
# [2] = target: GDP-bound NRAS wild-type protein (Homo sapiens, UniProt P01111); assay: Binding to NRAS by surface plasmon resonance (SPR), KD and KD ratio to KRAS
# Summary of the method: (§1)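 SPR, 30°C: Avi-biotin RAS·GDP captured via Biotin CAPture (~100–300 RU); running buffer HBS pH 7.4, 1 mM DTT, 10 mM MgCl2, 0.01% Tween 20, 10 µM GDP, 4% DMSO. Single-cycle kinetics, 100 µL/min, 75 s injections; 1:1 model → KD.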
# HRAS wild-type protein = HRAS wild-type protein (Homo sapiens, UniProt P01112); assay: Binding to HRAS by surface plasmon resonance (SPR), KD and KD ratio to KRAS
# HRAS wild-type protein, sequence (P01112 whole entry): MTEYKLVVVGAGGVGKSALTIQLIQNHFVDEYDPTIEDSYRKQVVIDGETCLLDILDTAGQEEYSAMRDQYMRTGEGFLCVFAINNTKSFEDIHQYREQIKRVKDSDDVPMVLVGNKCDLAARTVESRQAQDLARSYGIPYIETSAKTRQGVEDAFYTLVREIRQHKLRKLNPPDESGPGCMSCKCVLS
# Summary of the method: as §1
# [3] = target: GDP-bound KRAS wild-type protein (Homo sapiens, UniProt P01116); assay: Binding to KRAS by surface plasmon resonance (SPR), dissociation constant KD
# GDP-bound KRAS wild-type protein, sequence (P01116 1-188 isoform P01116-2): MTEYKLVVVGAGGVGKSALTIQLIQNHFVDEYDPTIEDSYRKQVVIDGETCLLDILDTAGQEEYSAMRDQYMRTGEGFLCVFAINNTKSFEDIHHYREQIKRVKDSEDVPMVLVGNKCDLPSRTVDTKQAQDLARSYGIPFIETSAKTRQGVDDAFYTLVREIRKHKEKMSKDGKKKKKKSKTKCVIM
# Summary of the method: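 GDP-bound biotin-Avi RAS captured at ~100–300 RU, 30°C, pH 7.4 HBS containing 10 µM GDP, 10 mM MgCl2, 1 mM DTT, 0.01% Tween 20 and 4% DMSO. KD by 1:1 fitting.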
# [4] = ratio of KD for GDP-bound NRAS wild-type protein to KD for KRAS
# [5] = ratio of KD for HRAS wild-type protein to KD for KRAS
# [6] = ratio of the KD value with respect to GDP-bound NRAS wild-type protein to the KD value with respect to KRAS
# [7] = ratio of the KD value with respect to HRAS wild-type protein to the KD value with respect to KRAS
# [8] = Single Cycle Kinetics, 1:1 binding model
# GDP-bound NRAS wild-type protein, sequence (P01111 whole entry): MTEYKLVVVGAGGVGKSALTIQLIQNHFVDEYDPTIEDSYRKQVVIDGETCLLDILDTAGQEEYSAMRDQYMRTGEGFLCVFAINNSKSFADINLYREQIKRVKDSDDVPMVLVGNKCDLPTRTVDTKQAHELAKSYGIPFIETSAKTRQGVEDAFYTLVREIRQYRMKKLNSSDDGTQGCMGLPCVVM
IC50 [1],Kd ([3]; 1:1 binding model),"Kd [3, 8]",Kd ([3]; Single Cycle Kinetics),SMILES,"NRAS /KRAS [2, 4]",HRAS /KRAS (HRAS wild-type protein; [5]),"NRAS /KRAS [2, 6]",HRAS /KRAS (HRAS wild-type protein; [7]),NRAS /KRAS ([2]; ratio of KD value for GDP-bound NRAS wild-type protein to KD value for KRAS (SPR)),HRAS /KRAS (HRAS wild-type protein; ratio of KD value for HRAS wild-type protein to KD value for KRAS (SPR))
5.4 nM,–,0.14 nM,–,CC[C@H](C)[C@@H]1NC(=O)[C@H](CC(C)C)N(C)C(=O)C[C@@H](C(=O)N2CCOCC2)N(C)C(=O)[C@H](C2CCCC2)N(C)C(=O)C2(CCCC2)NC(=O)[C@@H]2CCCN2C(=O)[C@H](CCc2ccc(C(F)(F)F)c(Cl)c2)NC(=O)CN(C)C(=O)[C@H](Cc2ccc(C)cc2)N2CC=CC[C@@H](C2=O)N(C)C(=O)CN(C)C1=O [PP0460],–,–,C (A compound having a KD ratio of 0.1 or more and less than 3 is denoted as C),C (A compound having a KD ratio of 0.1 or more and less than 3 is denoted as C),–,–
165 nM,–,1.8 nM,–,CCO[C@@H]1C[C@H]2C(=O)NC3(CCC3)C(=O)N(C)[C@@H](C3CCCC3)C(=O)N(C)[C@H](C(=O)N(CC)CC)CC(=O)N(C)[C@@H](CC(C)C)C(=O)N[C@@H]([C@@H](C)CC)C(=O)N(C)CC(=O)N(C)[C@H]3C/C=C\CCN(C3=O)[C@@H](Cc3ccc(C)cc3)C(=O)N(C)CC(=O)N[C@@H](CCc3ccc(C(F)(F)F)c(OC)c3)C(=O)N2C1 [PP1851],–,–,–,–,A (a compound having 10 or more and less than 20 is denoted as A),A (a compound having 10 or more and less than 20 is denoted as A)
7.6 nM,–,0.098 nM,–,CC[C@H](C)[C@@H]1NC(=O)[C@H](CC2CC2)N(C)C(=O)C[C@@H](C(=O)N(C)C)N(C)C(=O)[C@H](C2CCCC2)N(C)C(=O)C2(CC(C)(C)C2)NC(=O)[C@@H]2C[C@@H](C)CN2C(=O)[C@H](CCc2ccc(C(F)(F)F)c(OC)c2)NC(=O)CN(C)C(=O)[C@H](Cc2ccc(C)cc2)N2CC/C=C\C[C@@H](C2=O)N(C)C(=O)CN(C)C1=O [PP1901],–,–,A (a compound having 10 or more and less than 20 is denoted as A),B (a compound having 3 or more and less than 10 is denoted as B),–,–
83.9 nM,–,–,0.65 nM,CC[C@H](C)[C@@H]1NC(=O)[C@H](Cc2cccc(F)c2)N(C)C(=O)C[C@@H](C(=O)N2CCOCC2)N(C)C(=O)[C@H](C2CCCC2)N(C)C(=O)C2(CCCC2)NC(=O)[C@@H]2CCCN2C(=O)[C@H](CCc2ccc(C(F)(F)F)c(Cl)c2)NC(=O)CN(C)C(=O)[C@H](Cc2ccc(F)cc2)N2CCCCC[C@@H](C2=O)N(C)C(=O)CN(C)C1=O [PP0962],B (a compound having 3 or more and less than 10 is denoted as B),B (a compound having 3 or more and less than 10 is denoted as B),–,–,–,–
25.2 nM,–,–,0.16 nM,CCO[C@@H]1C[C@H]2C(=O)NC3(CCC3)C(=O)N(C)[C@@H](C3CCCC3)C(=O)N(C)[C@H](C(=O)N3CCOCC3)CC(=O)N(C)[C@@H](CC(C)C)C(=O)N[C@@H]([C@@H](C)CC)C(=O)N(C)CC(=O)N(C)[C@H]3CCCCCN(C3=O)[C@@H](Cc3ccc(F)c(F)c3)C(=O)N(C)CC(=O)N[C@@H](CCc3cc(F)c(C(F)(F)F)c(F)c3)C(=O)N2C1 [PP0917],B (a compound having 3 or more and less than 10 is denoted as B),B (a compound having 3 or more and less than 10 is denoted as B),–,–,–,–

# Continued, compound first:
SMILES,IC50 [1],Kd ([3]; 1:1 binding model),"Kd [3, 8]",Kd ([3]; Single Cycle Kinetics),"NRAS /KRAS [2, 4]",HRAS /KRAS (HRAS wild-type protein; [5]),"NRAS /KRAS [2, 6]",HRAS /KRAS (HRAS wild-type protein; [7]),NRAS /KRAS ([2]; ratio of KD value for GDP-bound NRAS wild-type protein to KD value for KRAS (SPR)),HRAS /KRAS (HRAS wild-type protein; ratio of KD value for HRAS wild-type protein to KD value for KRAS (SPR))
CCO[C@@H]1C[C@H]2C(=O)NC3(CC(C)(C)C3)C(=O)N(C)[C@@H](C3CCCC3)C(=O)N(C)[C@H](C(=O)N(C)CC)CC(=O)N(C)[C@@H](CC(C)C)C(=O)N[C@@H]([C@@H](C)CC)C(=O)N(C)CC(=O)N(C)[C@H]3C/C=C\CCN(C3=O)[C@@H](Cc3ccc(C(F)F)cc3)C(=O)N(C)CC(=O)N[C@@H](CCc3ccc(C(F)(F)F)c(C4CC4)c3)C(=O)N2C1 [PP3151],18.6 nM,0.23 nM,–,–,A (a compound having 10 or more and less than 20 is denoted as A),A (a compound having 10 or more and less than 20 is denoted as A),–,–,–,–
CCO[C@@H]1C[C@H]2C(=O)NC3(CC(C)(C)C3)C(=O)N(C)[C@@H](C3CCCC3)C(=O)N(C)[C@H](C(=O)N(C)C)CC(=O)N(C)[C@@H]([C@H](C)OC)C(=O)N[C@@H]([C@@H](C)CC)C(=O)N(C3CC3)CC(=O)N(C)[C@H]3C/C=C\CCN(C3=O)[C@@H](Cc3ccc(C)cc3)C(=O)N(C)CC(=O)N[C@@H](CCc3ccc(C(F)(F)F)c(OC)c3)C(=O)N2C1 [PP3191],38.9 nM,0.49 nM,–,–,A (a compound having 10 or more and less than 20 is denoted as A),A (a compound having 10 or more and less than 20 is denoted as A),–,–,–,–
CCCOC[C@H]1C(=O)N[C@@H]([C@@H](C)CC)C(=O)N(C)CC(=O)N(C)[C@H]2C/C=C\CCN(C2=O)[C@@H](Cc2ccc(C)cc2)C(=O)N(C)CC(=O)N[C@@H](CCc2cc(F)c(C(F)(F)F)c(F)c2)C(=O)N2C[C@H](CC)C[C@H]2C(=O)NC2(CCCC2)C(=O)N(C)[C@@H](C2CCCC2)C(=O)N(C)[C@H](C(=O)N(C)C)CC(=O)N1C [PP2218],24 nM,–,0.29 nM,–,–,–,A (a compound having 10 or more and less than 20 is denoted as A),A (a compound having 10 or more and less than 20 is denoted as A),–,–
